Consider 1 compound from paper PMC5866846 (Archives of Toxicology, 2017).

One data set concerns CYP3A4 gene expression. Nature of the data set: CYP3A4 gene expression in upcyte hepatocytes (Fluidigm RT-PCR). The following applies: 5 µM, 72 h, both cell strains. The source says: (§1) Total RNA was isolated from cells using the Direct-zol™ RNA MiniPrep kit (Zymo Research Corp., Irvine, California). cDNA was synthesized using TaqMan Reverse Transcription Reagents (Life technologies, Applera GmbH, Darmstadt, Germany) and the expression of 25 genes representative of phase I and phase II drug metabolism and transport was quantified by Fluidigm’s BioMark HD high-throughput quantitative chip platform (Fluidigm Corporation, San Francisco, USA). For relative gene expression analysis, the delta-delta-Ct (ΔΔCt) method was used: the Ct values of the target mRNA were first normalized to those of the endogenous control glyceraldehyde-3-phosphate dehydrogenase (GAPDH) followed by dividing values of experimental samples by their corresponding DMSO-treated controls to calculate the x-fold changes of mRNA expression.
(§2) In HLM and supersome™ incubations the formation rate is given as nmol µg^−1 min^−1 and fmol pmol^−1 min^−1, respectively, and was calculated as the mean ± SD. […] The intrinsic Clearance (Clint) was given as Vmax/Km ratio. […] Activity of CYP enzymes in induction assays is given as the fold-change (mean ± SD) compared to the corresponding DMSO-treated control. […] Gene expression patterns of treated cells are given as fold-change compared to the corresponding DMSO-treated control samples, as described above. […] In induction and inhibition experiments corresponding EC50 and IC50 values were calculated by nonlinear regression. In all experiments a level of probability (p) ≤ 0.05 for statistical testing was considered significant.
(§3) As control 0.05 % DMSO was used. The basal CYP activity and induction of CYP activity compared to the DMSO control were measured via HPLC-ESI-MS/MS.

The test system of the next data set is CYP1A1 gene expression. Briefly: CYP1A1 gene expression in upcyte hepatocytes (Fluidigm RT-PCR). Type of data set: cell-based, human. The following applies: 5 µM, 72 h, both cell strains. The source says:
(§4) Differences between induced and control samples were compared using Welch’s t-test (GraphPad Prism, version 5.04), when the fold-change was considered biologically relevant (1.5-fold increase or decrease in fold-changes) and corrected for multiple testing according to Bonferroni. […] An unpaired t-test assuming unequal variances was used for testing of differences in the expression patterns, when the fold-change was considered biologically relevant (1.5-fold increase or decrease in fold-changes) and corrected using Bonferroni adjustments.

A further data set deals with CYP2C9 (Homo sapiens, UniProt P11712). Nature of the data set: CYP2C9 activity in upcyte hepatocytes after treatment (probe substrate cocktail). Type of data set: cell-based. More on the design: host or cells: upcyte hepatocytes 653-03 and 653-03 #138 (653-03 2D6). The following applies: upcyte hepatocytes, 72 h, 50 pM to 5 µM; read-out: EC50 of induction of CYP2C9 activity. How it is done:
(§5) Cells were cultivated in hepatocyte culture medium at 37 °C and 5 °% CO2 in a humidified incubator. Before starting experiments, cells were cultivated in hepatocyte culture medium containing 0.5% (v/v) DMSO (Preculture medium) for 5 days (density of 0.8 × 10^4 cells/cm^2) and were subcultivated in high-performance medium containing 0.1% (v/v) DMSO (Metabolism conditioning medium) for 3–5 days (density of 1.6 × 10^5 cells/cm^2, confluence). The medium was replaced every 2–3 days.
as §2, §3

The test system of the next data set is SLC22A7 gene expression. Nature of the data set: SLC22A7 gene expression in upcyte hepatocytes (Fluidigm RT-PCR). Type of data set: cell-based, human. The following applies: 5 µM, 72 h, both cell strains.
From the text: as §1
In HLM and supersome™ incubations the formation rate is given as nmol µg^−1 min^−1 and fmol pmol^−1 min^−1, respectively, and was calculated as the mean ± SD. […] The intrinsic Clearance (Clint) was given as Vmax/Km ratio. […] In induction and inhibition experiments corresponding EC50 and IC50 values were calculated by nonlinear regression. […]
as §3

For the next data set, the target named is CYP2C19 (Homo sapiens, UniProt P33261). Nature of the data set: CYP2C19 activity in upcyte hepatocytes after treatment (probe substrate cocktail). It is filed as cell-based. Details: host or cells: upcyte hepatocytes 653-03 and 653-03 #138 (653-03 2D6). The following applies: upcyte hepatocytes, 72 h, 50 pM to 5 µM; read-out: EC50 of induction of CYP2C19 activity. The procedure:
as §5, §2, §3

The next data set relates to ABCG2 gene expression. Nature of the data set: ABCG2 gene expression in upcyte hepatocytes (Fluidigm RT-PCR). The following applies: 5 µM, 72 h, both cell strains. Type of data set: cell-based, human.
From the text: as §4

The subject of data set [1] is CYP1A2, 2C19, 2C9, 2B6, 3A4 and 2C8. Briefly: CYP activity in upcyte hepatocytes after treatment, all tested CYP isoenzymes together. Type of data set: cell-based, human. The following applies: 5 µM, 72 h. How it is done: as §5, §2
Another data set concerns SLC10A1 gene expression. Nature of the data set: SLC10A1 gene expression in upcyte hepatocytes (Fluidigm RT-PCR). It is filed as cell-based, human. The following applies: 5 µM, 72 h, both cell strains.
From the text: as §4

A further data set has as its system CYP3A4. Briefly: CYP3A4 activity in upcyte hepatocytes after treatment (probe substrate cocktail). The following applies: human, probe atorvastatin (35 µM), EC50 of induction of CYP3A4 activity, upcyte hepatocytes, 72 h, 50 pM to 5 µM. The procedure:
as §5, §2, §3

The subject of data set [2] is upcyte hepatocytes 653-03. Briefly: Tam metabolism in upcyte hepatocytes 653-03 (parental), metabolites in culture medium. Type of data set: in vitro ADME, human. The following applies: 1 µM Tam, 653-03 cells. The procedure: (§6) The medium was replaced every 2–3 days. […].
(§7) The culture medium was collected after 24, 48, 72, 96 and 144 h followed by metabolite measurements using HPLC-ESI-MS/MS.
(§8) Protein was precipitated by the addition of ACN containing 1% of acetic acid and the corresponding deuterated internal standards to the same volume of the sample followed by centrifugation at 20.000 g for 15 min at RT. […] Analytes were separated on a Zorbax Eclipse Plus C18 column (1.8 µm, 100 × 2.1 mm, Agilent technologies) and detected on a 6460 triple quadrupole mass spectrometer (Agilent technologies) in positive ESI MRM mode. Glucuronides of estrogen-like metabolites were detected separately via MS/MS-measurements in negative ESI MRM mode.
(§9) […]. […] […].

The subject of a further data set is CYP1A2. Nature of the data set: CYP1A2 activity in upcyte hepatocytes after treatment (probe substrate cocktail). The procedure:
as §5, §2, §3

For the next data set, the system named is CYP2B6. Briefly: CYP2B6 activity in upcyte hepatocytes after treatment (probe substrate cocktail). The following applies: human, probe bupropion (25 µM). The procedure: as §5, §2, §3
In another data set the target is T1, CYP2C8 (Homo sapiens, UniProt P10632).
T1 sequence (P10632 1-490): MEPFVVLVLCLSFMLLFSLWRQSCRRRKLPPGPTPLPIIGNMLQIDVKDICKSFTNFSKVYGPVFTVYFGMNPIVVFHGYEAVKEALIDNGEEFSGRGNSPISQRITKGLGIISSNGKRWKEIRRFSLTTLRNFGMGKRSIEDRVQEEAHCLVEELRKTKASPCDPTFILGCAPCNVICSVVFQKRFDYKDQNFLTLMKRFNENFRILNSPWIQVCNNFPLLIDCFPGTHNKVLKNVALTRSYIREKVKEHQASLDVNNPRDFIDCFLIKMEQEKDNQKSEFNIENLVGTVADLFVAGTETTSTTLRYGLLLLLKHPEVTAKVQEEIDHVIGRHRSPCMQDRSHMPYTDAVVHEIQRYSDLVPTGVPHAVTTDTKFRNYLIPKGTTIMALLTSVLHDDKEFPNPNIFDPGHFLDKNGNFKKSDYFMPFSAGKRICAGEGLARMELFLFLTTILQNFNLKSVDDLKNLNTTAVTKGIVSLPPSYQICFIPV
Briefly: CYP2C8 activity in upcyte hepatocytes after treatment (probe substrate cocktail). Type of data set: cell-based. The following applies: upcyte hepatocytes, 72 h, 50 pM to 5 µM; read-out: EC50 of induction of CYP2C8 activity. More on the design: host or cells: upcyte hepatocytes 653-03 and 653-03 #138 (653-03 2D6). How it is done: as §5, §2, §3

Data set [3] has as its system upcyte hepatocytes 653-03 2D6. Nature of the data set: Tam metabolism in upcyte hepatocytes 653-03 2D6, metabolites in culture medium. Type of data set: in vitro ADME, human. How it is done: as §6, §7, §8, §9
Another data set relates to estrogen receptor. Details: method as in Johnson et al. [1989]; Murphy et al. [1990]. The following applies: in vitro, estrogen-dependent breast cancer cell lines; ref Johnson et al. [1989]; Murphy et al. [1990]; cited from earlier work.

Chain of CYP2C9 (P11712 whole entry): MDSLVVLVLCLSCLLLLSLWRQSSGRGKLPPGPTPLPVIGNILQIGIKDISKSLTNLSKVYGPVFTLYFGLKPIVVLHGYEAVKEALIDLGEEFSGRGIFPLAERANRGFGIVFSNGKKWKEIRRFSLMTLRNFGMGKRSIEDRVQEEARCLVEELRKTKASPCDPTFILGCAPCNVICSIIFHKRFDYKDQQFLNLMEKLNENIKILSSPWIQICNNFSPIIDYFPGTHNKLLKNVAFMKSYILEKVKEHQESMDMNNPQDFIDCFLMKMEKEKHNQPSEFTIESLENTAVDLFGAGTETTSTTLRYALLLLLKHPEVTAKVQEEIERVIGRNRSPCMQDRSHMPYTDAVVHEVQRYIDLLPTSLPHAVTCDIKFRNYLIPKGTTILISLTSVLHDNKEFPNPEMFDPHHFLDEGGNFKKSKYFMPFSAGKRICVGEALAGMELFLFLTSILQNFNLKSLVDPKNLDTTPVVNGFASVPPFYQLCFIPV
Chain of CYP2C19 (P33261 whole entry): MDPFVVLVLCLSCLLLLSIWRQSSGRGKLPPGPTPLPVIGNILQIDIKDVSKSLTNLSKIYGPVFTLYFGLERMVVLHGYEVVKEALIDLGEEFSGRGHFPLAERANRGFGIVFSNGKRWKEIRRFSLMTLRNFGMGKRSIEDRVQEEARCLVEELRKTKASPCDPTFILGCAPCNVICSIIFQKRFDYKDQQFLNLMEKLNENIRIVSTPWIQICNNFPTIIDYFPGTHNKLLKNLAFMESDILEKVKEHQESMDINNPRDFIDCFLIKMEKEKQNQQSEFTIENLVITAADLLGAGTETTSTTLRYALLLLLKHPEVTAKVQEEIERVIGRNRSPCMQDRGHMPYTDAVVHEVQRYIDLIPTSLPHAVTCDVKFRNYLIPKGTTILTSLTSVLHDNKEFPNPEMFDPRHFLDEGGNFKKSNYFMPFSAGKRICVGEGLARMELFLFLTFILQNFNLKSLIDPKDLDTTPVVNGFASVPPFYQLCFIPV

Take `CCC(=C(c1ccc(O)cc1)c1ccc(O)cc1)c1ccccc1` [Tam-Bis, 4-[1-(4-hydroxyphenyl)-2-phenylbut-1-en-1-yl]phenol]: the “CYP3A4 gene expression, induction vs DMSO control” value was “up to 4.5 fold” in the data set with CYP3A4 gene expression and “up to 5.6 fold” in the data set on CYP3A4 gene expression (listed as tamoxifen bisphenol). Also, the “CYP1A1 gene expression, induction vs DMSO control” value in the data set with CYP1A1 gene expression is listed as “up to 4.5 fold”. Also, the concentration giving a half-maximal response (EC50) stood at 0.488 µM on CYP2C9; 0.0305 µM on CYP2C19; 0.518 µM in the data set on CYP1A2 (read-out: EC50 of induction of CYP1A2 activity, 72 h, 50 pM to 5 µM); 0.4 µM on CYP2C8. The “SLC22A7 gene expression, fold lower than DMSO control” value in the data set with SLC22A7 gene expression is “up to 2.5 fold”. Further, the “ABCG2 gene expression, induction vs DMSO control” value in the data set with ABCG2 gene expression was “up to 4.5 fold”. Further, in [1], the “inhibitory effect on the tested CYP enzymes” value is listed as “no inhibitory effect”. For the same compound, the “SLC10A1 gene expression, downregulation (fold lower)” value in the data set with SLC10A1 gene expression is listed as “up to 2.5 fold”. In addition, the EC50 at 72 h was 0.178 µM in the data set on CYP3A4; > 0.4 µM with CYP1A2 (human, EC50 of induction of CYP1A2 activity, 50 pM to 5 µM); 0.187 µM in the data set on CYP2B6. In addition, the “concentration in the supernatant” value in data set [2] is 0.0306 nM; in [3] (1 µM Tam, 653-03 2D6 cells), “up to 87.5 pM”. Moreover, the “concentration in the supernatant of 653-03 2D6 cells relative to parental cells” value in [3] (cells incubated with 1 µM Tam up to 144 h) is listed as “up to 4 times”. Also, the “agonism regarding estrogen-regulated mRNA expression” value with estrogen receptor is reported as “full agonists”.

What is called EC50 is the concentration giving half of the maximal effect.
